Here are results for 56 compounds from patent US20240425496A1, “AZETIDINYL PYRIMIDINES AND USES THEREOF” (Aerie Pharmaceuticals, Inc., priority 2021, published 2024).

One test deals with TYK2 (Homo sapiens (Human), UniProt P29597). The experiment in a line: JAK kinase assay (KINASE-GLO luminescent), TYK2 enzyme. It counts as biochemical. To be noted: TYK2 enzyme 10 nM, Abl peptide substrate. On the procedure:
(§1) All compounds were initially prepared as 10 mM stocks in anhydrous dimethylsulfoxide (DMSO). […] Test compounds were then serially diluted 1:5 in DMSO for an 11-point concentration response and further diluted in the assay buffer bringing all compound concentrations to a final range of 100 μM to 10 μM in 2.5% DMSO. […] The reaction was initiated by the addition of 10 μL of 4× stock solution ATP (2 μM). Reactions were thoroughly mixed manually, covered, and allowed to incubate at room temperature for 75 min. Protein kinase activity was quantitated using Promega's KINASE-GLO™ luminescent Kinase Assay Kit according to the manufacturer's directions. ATP concentrations remaining in Test wells following the termination of the enzymatic reaction were compared against control wells containing equivalent amounts of DMSO containing no inhibitor (CTRL). […] Percent of Control (POC) values were determined for each concentration of compound tested according to the equation: […]
(§2) IC50 values were calculated using the following 4-parameter logistic curve-fitting algorithm:
(§3) Compounds were prepared in the exact same manner as described in the ROCK Kinase Assay with the exception to the substrate and enzyme. […] All other steps and solutions remain identical to the ROCK Kinase Assay above.
(In general: Kinase-Glo reads ATP consumption through a luciferase reaction.)

The next test has as its target JAK1 (Homo sapiens (Human), UniProt P23458). The test can be described thus: JAK kinase assay (KINASE-GLO luminescent), JAK1 enzyme. The conditions noted are these: JAK1 enzyme 10 nM, Abl peptide substrate. It is filed as biochemical. How it is done: as §1, §2, §3

JAK1, sequence (P23458 whole entry, species assumed): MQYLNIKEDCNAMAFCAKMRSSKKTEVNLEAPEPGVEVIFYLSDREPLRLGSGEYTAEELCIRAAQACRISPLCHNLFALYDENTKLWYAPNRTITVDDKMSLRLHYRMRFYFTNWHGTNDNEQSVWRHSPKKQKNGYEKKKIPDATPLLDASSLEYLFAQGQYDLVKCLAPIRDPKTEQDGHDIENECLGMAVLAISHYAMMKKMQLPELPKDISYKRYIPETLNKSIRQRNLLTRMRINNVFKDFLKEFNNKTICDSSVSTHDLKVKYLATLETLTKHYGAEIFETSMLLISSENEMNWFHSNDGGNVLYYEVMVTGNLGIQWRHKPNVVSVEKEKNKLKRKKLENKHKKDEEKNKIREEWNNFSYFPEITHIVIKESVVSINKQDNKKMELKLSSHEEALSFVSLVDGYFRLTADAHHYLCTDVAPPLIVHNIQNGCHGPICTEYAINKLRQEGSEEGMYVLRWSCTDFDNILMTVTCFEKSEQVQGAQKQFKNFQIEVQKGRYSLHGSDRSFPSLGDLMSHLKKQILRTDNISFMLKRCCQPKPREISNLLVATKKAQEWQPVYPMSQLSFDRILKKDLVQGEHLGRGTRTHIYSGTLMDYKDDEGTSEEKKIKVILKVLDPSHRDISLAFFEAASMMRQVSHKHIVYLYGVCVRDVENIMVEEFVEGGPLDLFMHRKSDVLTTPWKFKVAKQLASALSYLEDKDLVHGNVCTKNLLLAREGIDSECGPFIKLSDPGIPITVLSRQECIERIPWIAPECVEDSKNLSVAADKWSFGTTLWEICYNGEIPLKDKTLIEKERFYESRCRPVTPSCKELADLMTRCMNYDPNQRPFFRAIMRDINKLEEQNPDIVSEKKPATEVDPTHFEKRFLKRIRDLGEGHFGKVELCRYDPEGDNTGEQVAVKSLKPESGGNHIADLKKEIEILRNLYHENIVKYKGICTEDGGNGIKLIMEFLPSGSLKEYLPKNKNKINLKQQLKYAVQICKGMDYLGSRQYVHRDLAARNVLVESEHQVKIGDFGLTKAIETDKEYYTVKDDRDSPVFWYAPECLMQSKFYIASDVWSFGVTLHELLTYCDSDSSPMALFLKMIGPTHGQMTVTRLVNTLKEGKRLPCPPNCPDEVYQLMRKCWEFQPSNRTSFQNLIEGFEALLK
TYK2, sequence (P29597 whole entry, species assumed): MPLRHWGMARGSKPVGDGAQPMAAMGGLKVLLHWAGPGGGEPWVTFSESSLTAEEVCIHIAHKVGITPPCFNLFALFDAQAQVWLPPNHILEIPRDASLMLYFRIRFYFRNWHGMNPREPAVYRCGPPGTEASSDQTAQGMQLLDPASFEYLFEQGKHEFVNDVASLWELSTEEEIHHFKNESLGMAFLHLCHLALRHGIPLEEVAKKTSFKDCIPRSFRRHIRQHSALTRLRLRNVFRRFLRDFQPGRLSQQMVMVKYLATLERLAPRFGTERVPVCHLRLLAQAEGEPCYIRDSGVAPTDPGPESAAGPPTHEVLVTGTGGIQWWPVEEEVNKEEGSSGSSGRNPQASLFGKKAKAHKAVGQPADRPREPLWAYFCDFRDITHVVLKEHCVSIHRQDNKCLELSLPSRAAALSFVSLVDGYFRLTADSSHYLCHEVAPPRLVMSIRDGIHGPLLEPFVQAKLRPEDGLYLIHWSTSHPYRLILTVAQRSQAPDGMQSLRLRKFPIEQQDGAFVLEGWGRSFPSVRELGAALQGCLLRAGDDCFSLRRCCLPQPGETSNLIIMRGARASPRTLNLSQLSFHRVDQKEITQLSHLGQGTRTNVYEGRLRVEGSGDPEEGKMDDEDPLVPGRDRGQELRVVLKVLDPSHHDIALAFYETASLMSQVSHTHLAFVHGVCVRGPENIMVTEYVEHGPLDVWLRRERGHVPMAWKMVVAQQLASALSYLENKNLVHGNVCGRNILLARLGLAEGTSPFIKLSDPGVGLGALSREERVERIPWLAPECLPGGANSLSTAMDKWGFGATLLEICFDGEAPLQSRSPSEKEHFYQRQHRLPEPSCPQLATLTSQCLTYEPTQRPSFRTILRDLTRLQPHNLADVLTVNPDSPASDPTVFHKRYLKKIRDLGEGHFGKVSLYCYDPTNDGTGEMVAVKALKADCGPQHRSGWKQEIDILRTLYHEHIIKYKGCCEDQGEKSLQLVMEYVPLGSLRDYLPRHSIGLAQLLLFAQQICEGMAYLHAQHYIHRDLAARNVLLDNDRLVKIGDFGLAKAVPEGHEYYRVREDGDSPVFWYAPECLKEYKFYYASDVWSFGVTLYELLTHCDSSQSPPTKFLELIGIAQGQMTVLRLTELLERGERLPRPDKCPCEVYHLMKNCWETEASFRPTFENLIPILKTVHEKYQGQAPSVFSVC

Take `Cc1cc(Nc2ncc(C)c(N3CC(CC#N)(N4CCN(C)CC4)C3)n2)sn1` [E5, 2-(1-(5-methyl-2-((3-methylisothiazol-5-yl)amino)pyrimidin-4-yl)-3-(4-methyl-piperazin-1-yl)azetidin-3-yl)acetonitrile]: at TYK2, the IC50 is < 10 nM.
With `Cc1cc(Nc2ncc(C)c(N3CC(CC#N)C3)n2)sn1` [E6], at TYK2, the IC50 is < 10 nM.
`Cc1cc(Nc2ncc(C)c(N3CC(CC#N)(N4CCOCC4)C3)n2)sn1` [E9]: the IC50 against TYK2 and at JAK1 was < 10 nM each time.
On to `Cc1cc(Nc2ncc(C)c(N3CC(CC#N)(N4CCCCC4)C3)n2)sn1` [E10], for which the 50% inhibitory concentration (IC50) against JAK1 is < 10 nM.
For `Cc1cc(Nc2ncc(C)c(N3CC(CC#N)(N4CC(C5CC5)C4)C3)n2)sn1` [E11], the IC50 at TYK2 and at JAK1 was < 10 nM each time.
As for `Cc1cc(Nc2ncc(C)c(N3CC(CC#N)(N4CCC4)C3)n2)sn1` [E12], the IC50 on TYK2 and on JAK1 was < 10 nM each time.
`Cc1cc(Nc2ncc(C)c(N3CC(CC#N)(N(C)C4CC4)C3)n2)sn1` [E13]: the IC50 at TYK2 and at JAK1 was < 10 nM each time.
In the case of `Cc1cc(Nc2ncc(C)c(N3CC(CC#N)(N4CCC(CCF)CC4)C3)n2)sn1` [E14], the half-maximal inhibitory concentration (IC50) against TYK2 and against JAK1 was < 10 nM each time.
`Cc1cc(Nc2ncc(C)c(N3CC(CC#N)(N4CCCC(C)C4)C3)n2)sn1` (stereo not shown) [E15]: the IC50 on TYK2 and on JAK1 was < 10 nM in each case.
`Cc1cc(Nc2ncc(C)c(N3CC(CC#N)(N4CC(C)CC(C)C4)C3)n2)sn1` (stereo not shown) [E16]: the 50% inhibitory concentration (IC50) against TYK2 and against JAK1 was < 5 nM each time.
`Cc1cc(Nc2ncc(C)c(N3CC(CC#N)(N4CCC(F)CC4)C3)n2)sn1` [E17]: the IC50 against TYK2 and against JAK1 was < 10 nM each time.
In the case of `Cc1cnc(Nc2cc(C3CC3)ns2)nc1N1CC(CC#N)(N2CCN(C)CC2)C1` [E18], the IC50 against TYK2 and at JAK1 was < 5 nM throughout.
Turning to `Cc1cc(Nc2ncc(C)c(N3CC(CC#N)(N4CC5CC(C5)C4)C3)n2)sn1` [E19], the IC50 against TYK2 and on JAK1 was < 10 nM throughout.
For the compound `Cc1cc(Nc2ncc(C)c(N3CC(CC#N)(N4CCC(CC(F)F)CC4)C3)n2)sn1` [E20], the IC50 on TYK2 and on JAK1 was < 10 nM each time.
With `Cc1cc(Nc2ncc(C)c(N3CC(CC#N)(N4CCCC5(CC5)C4)C3)n2)sn1` [E21], the IC50 against TYK2 and on JAK1 was < 10 nM throughout.
Consider `Cc1cc(Nc2ncc(C)c(N3CC(CC#N)(N4CCC5(CC4)CC5(F)F)C3)n2)sn1` [E22], for which the IC50 at TYK2 and on JAK1 was < 10 nM throughout.
For `Cc1cc(Nc2ncc(C)c(N3CC(CC#N)(N4CC(C)CC5(CC5)C4)C3)n2)sn1` (stereo not shown) [E23], the IC50 against TYK2 and against JAK1 was < 10 nM in each case.
For `COc1cnc(Nc2cc(C)ns2)nc1N1CC(CC#N)(N2CCCCC2)C1` [E24], the half-inhibitory concentration (IC50) at TYK2 and against JAK1 was < 50 nM throughout.
On to `Cc1cc(Nc2ncc(Cl)c(N3CC(CC#N)(N4CCCCC4)C3)n2)sn1` [E25], for which the IC50 on TYK2 and on JAK1 was < 10 nM throughout.
For the compound `Cc1cc(Nc2ncc(C)c(N3CC(CC#N)(N4CCC5(CC4)COC5)C3)n2)sn1` [E26], the concentration for half-maximal inhibition (IC50) on TYK2 and at JAK1 was < 10 nM in each case.
Regarding `Cc1cc(Nc2ncc(C)c(N3CC(CC#N)(N4CCCC5(C4)CC5(F)F)C3)n2)sn1` (stereo not shown) [E27], the half-inhibitory concentration (IC50) on TYK2 and at JAK1 was < 10 nM in each case.
Turning to `Cc1cc(Nc2ncc(C)c(N3CC(CC#N)(N4CCC5(CC4)CN(C)C5)C3)n2)sn1` [E28], the IC50 against TYK2 and against JAK1 was < 50 nM each time.
On to `Cc1cc(Nc2ncc(C)c(N3CC(CC#N)(N4CC5C(C4)C5(F)F)C3)n2)sn1` (stereo not shown) [E29], for which the IC50 against TYK2 and against JAK1 was < 10 nM in each case.
On to `Cc1cc(Nc2ncc(C)c(N3CC(CC#N)(N4CC5CCC(C4)N5C)C3)n2)sn1` [E30], for which the IC50 on TYK2 was < 10 nM; against JAK1, < 50 nM.
The corresponding values for `Cc1cc(Nc2ncc(C)c(N3CC(CC#N)(N4CC5CC(C4)C5(F)F)C3)n2)sn1` [E31] are < 10 nM and < 10 nM.
The corresponding values for `Cc1cc(Nc2ncc(C3CC3)c(N3CC(CC#N)(N4CCCCC4)C3)n2)sn1` [E32] are < 10 nM and < 50 nM.
The corresponding values for `Cc1cc(Nc2ncc(C)c(N3CC(CC#N)(N4CCCCCC4)C3)n2)sn1` [E33] are < 10 nM and < 10 nM.
Consider `Cc1cc(Nc2ncc(C)c(N3CC(CC#N)(N4C[C@@H](C)N(C)[C@@H](C)C4)C3)n2)sn1` [E34], for which the IC50 on TYK2 is < 10 nM; against JAK1, < 50 nM.
The corresponding values for `Cc1cc(Nc2ncc(C)c(N3CC(CC#N)(N4C[C@@H](C)N(C)[C@H](C)C4)C3)n2)sn1` [E35] are < 10 nM and < 50 nM.
`Cc1cc(Nc2ncc(C)c(N3CC(CC#N)(N4CCN(C)C(C)C4)C3)n2)sn1` (stereo not shown) [E36]: the concentration for half-maximal inhibition (IC50) on TYK2 and on JAK1 was < 10 nM throughout.
Consider `Cc1cc(Nc2ncc(C)c(N3CC(CC#N)(N(C)C4CN(C)C4)C3)n2)sn1` [E37], for which the IC50 against TYK2 and against JAK1 was < 50 nM each time.
Consider `Cc1cc(Nc2ncc(C)c(N3CC(CC#N)(N4CCN(C)C5(CC5)C4)C3)n2)sn1` [E38], for which the IC50 at TYK2 and at JAK1 was < 10 nM each time.
Consider `Cc1cc(Nc2ncc(C)c(N3CC(CC#N)(N4CCC5(CC4)CC5)C3)n2)sn1` [E39], for which the IC50 at TYK2 and against JAK1 was < 10 nM throughout.
Turning to `Cc1cc(Nc2ncc(C)c(N3CC(CC#N)(N4CCC(C5CC5(F)F)CC4)C3)n2)sn1` (stereo not shown) [E40], the IC50 against TYK2 and against JAK1 was < 10 nM throughout.
With `Cc1cc(Nc2ncc(C)c(N3CC(CC#N)(N4CCCC5(COC5)C4)C3)n2)sn1` [E41], the IC50 against TYK2 and against JAK1 was < 10 nM each time.
Consider `Cc1cc(Nc2ncc(C)c(N3CC(CC#N)(N4CC5(CN(C)C5)C4)C3)n2)sn1` [E42], for which the IC50 against TYK2 and against JAK1 was < 1000 nM throughout.
As for `Cc1cc(Nc2ncc(C)c(N3CC(CC#N)(N4CC(N(C)C)C4)C3)n2)sn1` [E43], the results for the IC50 on TYK2 and against JAK1 were < 100 nM and < 150 nM, respectively.
The corresponding values for `Cc1cc(Nc2ncc(C)c(N3CC(CC#N)(N4C[C@H](C)N(C)[C@@H](C)C4)C3)n2)sn1` [E44] are < 20 nM and < 50 nM.
`Cc1cc(Nc2nccc(N3CC(CC#N)(N4CCCCC4)C3)n2)sn1` [E45]: the results for the IC50 against TYK2 and against JAK1 were < 20 nM and < 200 nM, respectively.
For `Cc1cc(Nc2ncc(C)c(N3CC(CC#N)(N4CCN(C)C5(COC5)C4)C3)n2)sn1` [E46], the IC50 against TYK2 is < 10 nM; against JAK1, < 20 nM.
The like results for `Cc1cc(Nc2ncc(C)c(N3CC(CC#N)(N4CCC(CS(C)(=O)=O)CC4)C3)n2)sn1` [E47] were, in that order, < 10 nM and < 10 nM.
The like results for `Cc1cc(Nc2ncc(C)c(N3CC(CC#N)(N4CCN(CC5CC5)CC4)C3)n2)sn1` [E48] were, in that order, < 10 nM and < 10 nM.
Consider `Cc1cc(Nc2ncc(C)c(N3CC(CC#N)(N4C5CCCC4C5)C3)n2)sn1` [E49], for which the IC50 against TYK2 is < 20 nM; at JAK1, < 30 nM.
As to `Cc1cc(Nc2ncc(C)c(N3CC(CC#N)(N4C5CC4CN(C)C5)C3)n2)sn1` [E50], the IC50 is < 400 nM on TYK2 and < 250 nM at JAK1.
Turning to `Cc1cc(Nc2ncc(C)c(N3CC(CC#N)(N4CCN(CC(C)C)CC4)C3)n2)sn1` [E51], the 50% inhibitory concentration (IC50) on TYK2 is < 20 nM; against JAK1, < 15 nM.
With `Cc1cc(Nc2ncc(C)c(N3CC(CC#N)(N4CCN(C)[C@@H](C)C4)C3)n2)sn1` [E52A], the figures for the IC50 at TYK2 and at JAK1 were < 10 nM and < 20 nM, respectively.
The like results for `Cc1cc(Nc2ncc(C)c(N3CC(CC#N)(N4CCN5C[C@@H](F)C[C@H]5C4)C3)n2)sn1` [E52B] were, in that order, < 10 nM and < 10 nM.
Turning to `Cc1cc(Nc2ncc(C)c(N3CC(CC#N)(N4CCN(CC(C)(C)F)CC4)C3)n2)sn1` [E52D], the values for the concentration for half-maximal inhibition (IC50) against TYK2 and against JAK1 were < 20 nM and < 10 nM, respectively.
The like results for `Cc1cc(Nc2ncc(C)c(N3CC(CC#N)(N4CCC5C(CC4)C5(F)F)C3)n2)sn1` (stereo not shown) [E52E] were, in that order, < 10 nM and < 10 nM.
For the compound `Cc1cc(Nc2ncc(C)c(N3CC(CC#N)(N4CC5CC(C4)N5C)C3)n2)sn1` [E52F], the IC50 is < 50 nM at TYK2 and < 100 nM at JAK1.
The corresponding values for `Cc1cc(Nc2ncc(C)c(N3CC(CC#N)(N4CCCN(C)CC4)C3)n2)sn1` [E52G] are < 50 nM and < 100 nM.
Take `Cc1cc(Nc2ncc(C)c(N3CC(CC#N)(NC4CN(C)C4)C3)n2)sn1` [E52H]: the IC50 at TYK2 and on JAK1 was < 100 nM each time.
Consider `CCN1CCN(C2(CC#N)CN(c3nc(Nc4cc(C)ns4)ncc3C)C2)CC1` [E52], for which the IC50 at TYK2 and on JAK1 was < 10 nM throughout.
For the compound `Cc1cc(Nc2ncc(C)c(N3CC(CC#N)(N4CCN(C5CC5)CC4)C3)n2)sn1` [E54], the IC50 against TYK2 and on JAK1 was < 10 nM in each case.
In the case of `Cc1cc(Nc2ncc(C)c(N3CC(CC#N)(N4CCN(C(C)C)CC4)C3)n2)sn1` [E55], the IC50 against TYK2 and at JAK1 was < 50 nM in each case.
Turning to `Cc1cc(Nc2ncc(C)c(N3CC(CC#N)(N4CCN(CCF)CC4)C3)n2)sn1` [E55a], the IC50 on TYK2 and at JAK1 was < 10 nM in each case.

One may read the IC50 as the concentration that inhibits the measured activity by half. Read a low IC50 as greater potency in that assay.
